For 26 compounds, GI50 and TGI results are on record in PubChem BioAssay (NCI).

The structures appear in SMILES notation. Where “and” joins values, the source holds several entries; their conditions need not be identical. Equal values may be shown once.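 Exposure lasted 48 hours, with cells grown in 96-well plates and compounds tested at five concentrations. GI50 is the concentration that inhibits growth by half. TGI: concentration producing complete growth inhibition.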

Common to all, as to assay: growth of human tumour cells (NCI), 48 h
The test system of test [1] is NCI-H522 lung.
The subject of test [2] is SK-MEL-5 melanoma.
The subject of test [3] is SK-MEL-2 melanoma.
Test [4] concerns OVCAR-3 ovarian.
In test [5] the test system is UO-31 renal.
Test [6] deals with UACC-257 melanoma.
Test [7] concerns NCI-H460 lung.
In test [8] the test system is CAKI-1 renal.
Test [9] relates to SF-295 CNS.

As for `COc1ccc(C2C(C)C(=O)C(C)C(c3ccc(OC)cc3)N2N=O)cc1` (configuration not stated), the GI50 in test [1] is over 750 µM; in [2], over 750 µM; in test [4], over 750 µM; in test [7] it was over 750 µM; in test [8], 50.1 µM; in test [9] it was 20.7 µM. Besides, the TGI in test [1] is over 750 µM; in test [2], over 750 µM; in [3], 602 µM; in [4], over 1000 µM; in test [5] it was over 1000 µM; in [6], over 1000 µM. For the same compound, the TGI was over 1000 µM in [7]; 750 µM and 577 µM in test [8]; 491 µM in [9].

As to `OCCN1CCN2C=C(C3CCCC4N(CCO)CCN34)CCC21` (configuration not stated), the TGI in test [1] was over 70 µM; in test [2], over 100 µM; in test [3], over 75.6 µM; in test [4], over 100 µM; in test [5], over 100 µM; in test [6], over 100 µM. Further, the TGI in test [7], in test [8] and in test [9] was over 100 µM each time.

As for `NN1C(=O)C(CCO)S/C1=N/N=C1/SC(CCO)C(=O)N1N` (configuration not stated), the TGI in [1], in test [2], in [3], in test [4], in test [5] and in [6] was over 100 µM each time. Further, the TGI in [7], in test [8] and in test [9] was over 100 µM in each case.

On to `N/N=c1\c2ccccc2c2cc3c(cc12)/c(=N/N)c1ccccc13`, for which the TGI in [1], in [2], in test [3], in test [5], in test [6] and in test [7] was over 100 µM in each case. The compound also yielded a TGI in [9] of over 100 µM.

With `CC#CC1C2CCCC1(CSc1ccccc1)NC(=O)O2` (configuration not stated), the TGI in [1], in test [2], in test [3], in [4], in test [5] and in [6] was over 100 µM each time. Also, the TGI in test [7], in [8] and in test [9] was over 100 µM each time.

On to `CC(=O)[CH-]C(=O)c1ccccc1.CC(=O)[CH-]C(=O)c1ccccc1.C[C@]12CCC(=O)C=C1CC[C@@H]1C2CC[C@@]2(C)C1CC[C@@H]2[O-].C[C@]12CCC(=O)C=C1CC[C@@H]1C2CC[C@@]2(C)C1CC[C@@H]2[O-].Cl.[Ti+4]` (some centres not stated), for which the GI50 is 13.6 µM in [1]; 11.3 µM in test [2]; 12.7 µM in test [3]; 13.2 µM in test [4]; 16.5 µM in [5]; 19.3 µM in test [6]. Further, the GI50 was 14.8 µM in [7] and 13.8 µM in test [8]. For the same compound, the TGI in test [1] stood at 34.8 µM; in [2], 32 µM; in test [3], 31.4 µM; in [4] it was 65.5 µM; in test [5], 52.5 µM; in test [6], 69.7 µM. Further, the TGI stood at 30.9 µM in test [7] and 46.4 µM in test [8].

As for `c1ccc2c(c1)N=C(c1cccc3ccccc13)CC(c1ccc3c(c1)OCO3)S2` (configuration not stated), the TGI in test [1], in test [2], in test [3], in test [4], in [5] and in test [6] was over 100 µM each time. The TGI in test [7], in [8] and in [9] was over 100 µM throughout.

In the case of `O=C(/C(=C\c1ccc(Cl)cc1)c1ccccc1)c1ccccc1`, the TGI in [1] is over 100 µM; in test [3] it was 75 µM; in [5], over 100 µM; in test [6], over 100 µM; in test [7] it was over 100 µM; in [9], over 100 µM.

On to `CC(C)NC(=O)CCN(C(=O)O)S(=O)(=O)c1ccc(NC(=O)c2ccccc2)cc1`, for which the TGI is over 100 µM in [1]; over 100 µM in test [2]; over 100 µM in test [3]; over 100 µM in [4]; over 100 µM in [5]; over 79.3 µM in test [6]. The values for the TGI in [7], in test [8] and in test [9] were over 59.7 µM, over 100 µM and over 100 µM, respectively.

In the case of `Cc1ccc(NC(=O)/C(Cl)=C(/Cl)C(=O)O)cc1`, the TGI in test [1] worked out at 6.11 µM; in [2] it was 55.2 µM; in [3], 37.6 µM; in test [4] it was 32.4 µM; in [5], 31.8 µM; in [6], 44.2 µM. The figures for the TGI in [7], in [8] and in [9] were over 100 µM, 31.1 µM and 96.8 µM, respectively.

On to `Cc1ccc(S(=O)OCC23CC4CC(CC(C4)C2)C3)cc1` (configuration not stated), for which the TGI in test [1], in test [2], in [4], in [5], in test [6] and in test [7] was over 100 µM in each case. Also, the TGI in test [8] and in test [9] was over 100 µM throughout.

With `O=C(COC(=O)c1cccc2c(=O)c3ccccc3[nH]c12)Nc1ccc(C(=O)O)cc1`, the TGI in test [1], in test [2], in test [4], in test [5], in test [6] and in [7] was over 100 µM throughout. Moreover, the TGI in [8] and in test [9] was over 100 µM in each case.

In the case of `NCCNCc1c2ccccc2c(CNCCN)c2ccccc12`, the TGI in test [1] was 21.2 µM; in [2] it was 90.3 µM; in test [3], 29.1 µM; in test [4], 70.8 µM; in [5], over 100 µM; in [6], 35.5 µM. The TGI worked out at 27 µM in test [7] and 82.8 µM in test [9].

On to `Cc1cc(C)nc(NS(=O)(=O)c2ccc(Nc3c4ccc(Cl)cc4nc4c(C(=O)NCCN(C)C)cccc34)cc2)n1`, for which the TGI in test [1], in test [2], in [4], in test [5], in test [6] and in test [7] was over 100 µM in each case. The TGI in test [8] and in [9] was over 100 µM each time.

Consider `COC(=O)C(Cc1nc2ccccc2nc1C)/C(=N\NC(N)=O)C(=O)Nc1cccc([N+](=O)[O-])c1` (configuration not stated), for which the TGI is 27.3 µM in test [1]; over 100 µM in test [2]; over 100 µM in test [3]; over 100 µM in test [4]; over 100 µM in test [5]; over 100 µM in [6]. Also, the TGI in test [7], in test [8] and in test [9] was over 100 µM throughout.

On to `COc1ccccc1NC(=O)c1nc2ccc([N+](=O)[O-])cc2nc1C`, for which the TGI in [1], in test [2], in test [3], in test [4], in [5] and in [6] was over 100 µM in each case. Further, the TGI in [7] and in test [8] was over 100 µM throughout.

As to `CCNC(=O)O/N=C1\CCC2[C@@H]3CC=C4C[C@@H](OC5CCCCO5)CC[C@]4(C)C3CC[C@]12C` (some centres not stated), the TGI in test [2] was over 100 µM; in test [3], 5.68 µM; in [4] it was 10.7 µM; in test [5], 2.85 µM; in test [6], 4.41 µM; in test [7], 6.21 µM. For the same compound, the TGI is 6.19 µM in [8] and 7.11 µM in [9].

As for `Clc1ccc(-c2c(C3=NCCCN3)nnn2-c2ccccc2)cc1`, the TGI in test [1], in [2], in test [3], in [4], in test [5] and in test [6] was over 100 µM throughout. Moreover, the TGI in test [7], in test [8] and in test [9] was over 100 µM each time.

With `C=C[C@]1(C)CCC2=C(CCC3C2(C)CCC[C@@]3(C)COC(C)=O)C1` (some centres not stated), the TGI turned out to be 28.7 µM in test [1]; 31 µM in test [2]; 29 µM in test [3]; 32.1 µM in test [4]; 33.4 µM in [5]; 53 µM in test [6]. For the same compound, the results for the TGI in [7], in test [8] and in test [9] were 32.2 µM, 37.6 µM and 32.5 µM, respectively.

Regarding `O=C1CCSC2=C1SCc1sccc12`, the TGI in test [1], in test [2], in [3], in [4], in test [5] and in [6] was over 100 µM each time. For the same compound, the TGI in [7], in [8] and in test [9] was over 100 µM each time.

As for `COc1ccc2nc3cc(Cl)ccc3c(Sc3ccc([N+](=O)[O-])cc3)c2c1`, the GI50 in test [1], in test [2], in [3], in [4], in test [5] and in test [6] was over 100 µM throughout. The GI50 in test [7], in test [8] and in test [9] was over 100 µM each time. In addition, the TGI in test [1], in test [2], in test [3], in test [4], in test [5] and in [6] was over 100 µM in each case. Further, the TGI in test [7], in test [8] and in test [9] was over 100 µM throughout.

For `C=C(C(=C)P(=S)(c1ccccc1)c1ccccc1)P(=S)(c1ccccc1)c1ccccc1`, the TGI in test [1], in [2], in test [3], in test [4], in test [6] and in test [7] was over 100 µM in each case. The TGI in test [8] and in [9] was over 100 µM in each case.

`c1ccc2cc(C[n+]3ccn(CCCCCCCCCCn4cc[n+](Cc5ccc6ccccc6c5)c4)c3)ccc2c1`: the GI50 in test [1] is 0.436 µM; in [3], 1.72 µM; in test [4] it was 1.95 µM; in [5], 6.14 µM; in [6], 1.37 µM; in test [7] it was 0.376 µM. Moreover, in test [9], the GI50 was 0.554 µM. The TGI was 1.94 µM in test [1]; 5.2 µM in test [3]; 7.09 µM in test [4]; over 100 µM in test [5]; 5.58 µM in [6]; 10.1 µM in test [7]. This compound also yielded a TGI in test [9] of 5.44 µM.

As for `COc1cc(/C=C2\C[C@H]3[C@@H]4CC=C5C[C@@H](O)CC[C@]5(C)[C@H]4CC[C@]3(C)[C@H]2O)ccc1OCCCn1ccnc1`, the GI50 is 22.3 µM in test [1]; 4.15 µM in [2]; 32.7 µM in [3]; 0.946 µM in test [4]; 2.12 µM in [5]; 6.3 µM in [6]. Also, the figures for the GI50 in test [7], in test [8] and in test [9] were 1.52 µM, 1.81 µM and 1.55 µM, respectively. In addition, the TGI in [1] was over 50 µM; in test [2], 12.4 µM; in test [3] it was over 50 µM; in [4], 2.9 µM; in [5] it was over 50 µM; in [6], 15.4 µM. In addition, the TGI in [7] came out at 5.11 µM; in test [8], 7.86 µM; in test [9], 6.32 µM.

Take `Nc1cc(=O)n(-c2ccccc2)c(=S)n1-c1ccccc1`: the TGI in [1], in test [2], in test [3], in test [4], in [5] and in [6] was over 100 µM in each case. Further, the TGI in test [7], in [8] and in test [9] was over 100 µM each time.

Take `COc1ccc(C(=O)C(c2ccc(OCc3ccccc3)cc2)c2ccc(OCc3ccccc3)cc2)cc1`: the TGI in test [1], in test [2], in [3], in test [4], in test [5] and in test [7] was over 100 µM throughout. The TGI in test [8] and in test [9] was over 100 µM each time.
